The values that follow come from patent US5670500A (priority 1995, dated 1997).

The conditions of data set [1]: in vivo; cited from earlier work.
The subject of data set [2] is Colon 26. Put plainly: Efficacy in mouse tumor models: Colon Carcinoma 26. The settings on record: Colon 26 mouse model. The data set is classed as in vivo. The protocol:
(§1) The efficacy of the compounds of the present invention was also tested in vivo using three well-known mouse tumor models: L1210, Lewis Lung, and Colon Carcinoma 26.

Data set [3] deals with T1, topoisomerase I (Homo sapiens, UniProt P11387).
T1 sequence (P11387 1-765): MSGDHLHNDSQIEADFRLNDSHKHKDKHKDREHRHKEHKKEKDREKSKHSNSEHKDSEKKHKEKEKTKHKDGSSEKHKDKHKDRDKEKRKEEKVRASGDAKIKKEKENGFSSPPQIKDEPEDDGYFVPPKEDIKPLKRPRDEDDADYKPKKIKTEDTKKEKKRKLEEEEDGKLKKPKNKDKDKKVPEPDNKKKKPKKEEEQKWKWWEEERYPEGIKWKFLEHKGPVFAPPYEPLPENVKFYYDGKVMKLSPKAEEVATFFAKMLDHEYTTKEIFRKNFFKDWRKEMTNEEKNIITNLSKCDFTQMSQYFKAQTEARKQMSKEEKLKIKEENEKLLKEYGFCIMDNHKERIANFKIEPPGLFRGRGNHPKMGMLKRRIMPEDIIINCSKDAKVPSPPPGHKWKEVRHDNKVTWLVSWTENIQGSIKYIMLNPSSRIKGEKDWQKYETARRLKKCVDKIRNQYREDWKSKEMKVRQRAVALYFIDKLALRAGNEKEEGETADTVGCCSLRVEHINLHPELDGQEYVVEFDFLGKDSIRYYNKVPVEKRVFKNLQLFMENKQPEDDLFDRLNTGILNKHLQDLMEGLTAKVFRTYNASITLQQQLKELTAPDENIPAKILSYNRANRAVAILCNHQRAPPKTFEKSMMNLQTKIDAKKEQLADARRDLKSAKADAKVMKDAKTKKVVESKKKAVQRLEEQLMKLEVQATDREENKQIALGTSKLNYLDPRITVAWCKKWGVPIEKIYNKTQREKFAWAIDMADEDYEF
The settings on record: cited from earlier work.

In data set [4] the test system is topoisomerase II. The settings on record: cited from earlier work.
The test system of data set [5] is wild-type (AUX-B1) Chinese Hamster ovary cells. Put plainly: CHO Microtiter Cytotoxicity Assay, wild type. The data set is classed as cell-based. The settings on record: Cricetulus griseus, AuxB1, 72 h, 3 days, XTT. The protocol: (§2) CHO Microtiter Cytotoxicity Assay
(§3) Chinese Hamster ovary cells are grown in Alpha MEM Medium with L-glutamine and nucleosides and containing 10% fetal bovine serum and 100 units per mL penicillin-streptomycin in 75 cm^2 canted neck tissue culture flasks. They are harvested from these flasks using 0.5% trypsin. Microtiter plates (96-well, sterile, flat bottom) (Corning 25860) are seeded with 1.6×10^3 wild-type (AUX-B1) Chinese Hamster ovary cells per well or 2×10^3 multidrug resistant (CH^R C5) Chinese Hamster ovary cells per well. The plates are incubated at 37° C., 5% CO2 overnight to allow the cells to attach. The outside wells of each plate are not used, due to evaporation during the incubation time. They are filled with medium and used as blanks. The next day, the medium is aspirated from the wells and 180 μL of fresh medium is added to each well. Compounds are diluted from stock solution in DMSO into fresh medium to a 10X concentration containing 2% DMSO. Twenty μL of this is then added to the 180 μL of fresh meduim in the wells. The plates are then incubated for another 3 days at 37° C., 5% CO2. […] The plate is then read on a UV Max plate reader, using wells without cells .(i.e., containing only 200 μL of medium and 50 μL of XTT/PMS solution) as a background control.

Data set [6] concerns L1210. As to the kind of experiment: Efficacy in mouse tumor models: L1210. Format: in vivo. The settings on record: L1210 mouse model, dose 42 mg/kg ip. The method, then:
as §1

In data set [7] the test system is multidrug resistant (CH^R C5) Chinese Hamster ovary cells. Put plainly: CHO Microtiter Cytotoxicity Assay, multidrug resistant. The data set is classed as cell-based. The following applies: Cricetulus griseus, CHRC5, 72 h, 3 days, XTT. The protocol: as §2, §3
Data set [8] has as its system Lewis Lung. As to the kind of experiment: Efficacy in mouse tumor models: Lewis Lung. The data set is classed as in vivo. The following applies: Lewis Lung mouse model, dose 9 mg/kg ip. The method, then:
as §1

For data set [9], the system named is solid tumor cancers, particularly ovarian cancer and non-small cell lung carcinoma. The following applies: humans; cited from earlier work.

As to `CC[C@@]1(O)C(=O)OCc2c1cc1n(c2=O)Cc2cc3ccccc3nc2-1` [Camptothecin], the toxicity result in [1] is “unacceptable dose limiting toxicity, unpredictable toxicity”. Besides, the “% Inc. in Lifespan, Colon 26” value in [2] (dose 4 mg/kg ip) came to 50%. Moreover, the “inhibition of topoisomerase I” value in data set [3] was “inhibit topoisomerase I”. In addition, the “effect on topoisomerase II” value in [4] is “no effect on topoisomerase II”.

Regarding `CC[C@@]1(O)C(=O)OCc2c1cc1n(c2=O)Cc2cc3c4c(ccc3nc2-1)OC(CN1CCOCC1)C4` (stereo partly drawn) [Formula III, (8S)-8-ethyl-1,2-dihydro-8-hydroxy-2(4-morpholinylmethyl)11H-furano [3,2-f]-pyrano[3',4':6,7]indolizino[1,2-b]quinoline-9,12(8H,14H)-dione], in data set [2] (dose 20 mg/kg sc), the “% Inc. in Lifespan, Colon 26” value turned out to be 45%. In addition, the IC50 in data set [5] was 5.5 nM; in data set [7], 420 nM. Further, the “% Inc. in Lifespan, L1210” value in data set [6] worked out at 350%.

For the compound `CC[C@@]1(O)C(=O)OCc2c1cc1n(c2=O)Cc2cc3c4c(ccc3nc2-1)OC(CN(C)C)C4` (stereo partly drawn) [Formula IV, (8S)-2-[(dimethylamino)methyl]-8-ethyl-1,2-dihydro-8-hydroxy-11H-furano[3,2-f]-pyrano [3',4':6,7]indolizino[1,2-b]quinoline-9,12(8H,14H)-dione], in data set [2] (dose 20 mg/kg sc), the “% Inc. in Lifespan, Colon 26” value came out at 32%. Besides, in data set [8], the “% Inc. in Lifespan, Lewis Lung” value is 67%. The IC50 in [5] worked out at 18 nM; in data set [7], 1000 nM.

With `CC[C@@]1(O)C(=O)OCc2c1cc1n(c2=O)Cc2cc3c(CN(C)C)c(O)ccc3nc2-1` [Topotecan, 9-dimethylaminomethyl-10-hydroxycamptothecin, reference compound], the “% Inc. in Lifespan, Colon 26” value in data set [2] (dose 20 mg/kg sc) is 45%. Moreover, in data set [9], the “efficacy in clinical tests” value was “demonstrated efficacy against several solid tumor cancers, particularly ovarian cancer and non-small cell lung carcinoma”.

“(S)-10-amino-4-ethyl-4-hydroxy-1H-pyrano[3',4':6,7]indolizino [1,2-b]quinoline-3,14(4H,12H)-dione [CPT-11]”: the toxicity entry in data set [1] was “adverse toxicity profile”.
